# Tested on: test plant species
# Assay: Post-emergent herbicidal activity test (greenhouse, foliar spray, visual growth reduction)
# Format: in vivo
# Conditions: post-emergence, 336 h, ECHCG: barnyardgrass (Echinochloa crus-galli), 140 g ai/ha, 14 days after application, read-out: Visual Growth Reduction (%) 14 Days After Application, ECHCG
# How it was run: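 Greenhouse plants at first–second true leaf stage sprayed overhead at 187 L/ha with compound in acetone/water/isopropanol/DMSO/crop oil/X-77 carrier; controls received solvent blank. Injury rated visually after 14 d on a 0–100% scale versus untreated and control plants, converted to growth reduction.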
row,Structure (SMILES),pest or weed control at 140 g/ha [%]
1,"COC(=O)c1nc(-c2ccc3c(c2)OC(F)(F)O3)c(F)cc1Cl [F258, Methyl 3-chloro-6-(2,2-difluorobenzo[d][1,3]dioxol-5-yl)-5-fluoropicolinate]",0 to 29
2,"COC(=O)c1nc(-c2ccc(Cl)cc2F)ccc1Cl [F270, Methyl 3-chloro-6-(4-chloro-2-fluorophenyl) picolinate]",0 to 29
3,"COC(=O)c1nc(-c2ccc3c(c2OC)OC(F)(F)O3)ccc1Cl [F369, Methyl 3-chloro-6-(2,2-difluoro-4-methoxybenzo[d][1,3]dioxol-5-yl)picolinate]",45 to 59

# Same assay, conditions: post-emergence, 336 h, IPOHE: ivy-leaf morning glory (Ipomoea hederacea), 140 g ai/ha, 14 days after application, read-out: Visual Growth Reduction (%) 14 Days After Application, IPOHE
row,Structure (SMILES),pest or weed control at 140 g/ha [%]
1,"COC(=O)c1nc(-c2ccc3c(c2)OC(F)(F)O3)c(F)cc1Cl [F258, Methyl 3-chloro-6-(2,2-difluorobenzo[d][1,3]dioxol-5-yl)-5-fluoropicolinate]",95 to 100
2,"COC(=O)c1nc(-c2ccc(Cl)cc2F)ccc1Cl [F270, Methyl 3-chloro-6-(4-chloro-2-fluorophenyl) picolinate]",95 to 100
3,"COC(=O)c1nc(-c2ccc3c(c2OC)OC(F)(F)O3)ccc1Cl [F369, Methyl 3-chloro-6-(2,2-difluoro-4-methoxybenzo[d][1,3]dioxol-5-yl)picolinate]",95 to 100

# Same assay, conditions: post-emergence, 336 h, KCHSC: kochia (Bassia scoparia), 140 g ai/ha, 14 days after application, read-out: Visual Growth Reduction (%) 14 Days After Application, KCHSC
row,Structure (SMILES),pest or weed control at 140 g/ha [%]
1,"COC(=O)c1nc(-c2ccc3c(c2)OC(F)(F)O3)c(F)cc1Cl [F258, Methyl 3-chloro-6-(2,2-difluorobenzo[d][1,3]dioxol-5-yl)-5-fluoropicolinate]",0 to 29
2,"COC(=O)c1nc(-c2ccc(Cl)cc2F)ccc1Cl [F270, Methyl 3-chloro-6-(4-chloro-2-fluorophenyl) picolinate]",75 to 84
3,"COC(=O)c1nc(-c2ccc3c(c2OC)OC(F)(F)O3)ccc1Cl [F369, Methyl 3-chloro-6-(2,2-difluoro-4-methoxybenzo[d][1,3]dioxol-5-yl)picolinate]",30 to 44

# Same assay, conditions: post-emergence, 336 h, ORYSA: rice (Oryza sativa), 140 g ai/ha, 14 days after application, read-out: Visual Growth Reduction (%) 14 Days After Application, ORYSA
row,Structure (SMILES),pest or weed control at 140 g/ha [%]
1,"COC(=O)c1nc(-c2ccc3c(c2)OC(F)(F)O3)c(F)cc1Cl [F258, Methyl 3-chloro-6-(2,2-difluorobenzo[d][1,3]dioxol-5-yl)-5-fluoropicolinate]",0 to 29
2,"COC(=O)c1nc(-c2ccc(Cl)cc2F)ccc1Cl [F270, Methyl 3-chloro-6-(4-chloro-2-fluorophenyl) picolinate]",0 to 29
3,"COC(=O)c1nc(-c2ccc3c(c2OC)OC(F)(F)O3)ccc1Cl [F369, Methyl 3-chloro-6-(2,2-difluoro-4-methoxybenzo[d][1,3]dioxol-5-yl)picolinate]",0 to 29

# Same assay, conditions: post-emergence, 336 h, SETFA: giant foxtail (Setaria faberi), 140 g ai/ha, 14 days after application, read-out: Visual Growth Reduction (%) 14 Days After Application, SETFA
row,Structure (SMILES),pest or weed control at 140 g/ha [%]
1,"COC(=O)c1nc(-c2ccc3c(c2)OC(F)(F)O3)c(F)cc1Cl [F258, Methyl 3-chloro-6-(2,2-difluorobenzo[d][1,3]dioxol-5-yl)-5-fluoropicolinate]",0 to 29
2,"COC(=O)c1nc(-c2ccc(Cl)cc2F)ccc1Cl [F270, Methyl 3-chloro-6-(4-chloro-2-fluorophenyl) picolinate]",0 to 29
3,"COC(=O)c1nc(-c2ccc3c(c2OC)OC(F)(F)O3)ccc1Cl [F369, Methyl 3-chloro-6-(2,2-difluoro-4-methoxybenzo[d][1,3]dioxol-5-yl)picolinate]",60 to 74

# Same assay, conditions: post-emergence, 336 h, SORVU: grain sorghum (Sorghum vulgare), 140 g ai/ha, 14 days after application, read-out: Visual Growth Reduction (%) 14 Days After Application, SORVU
row,Structure (SMILES),pest or weed control at 140 g/ha [%]
1,"COC(=O)c1nc(-c2ccc3c(c2)OC(F)(F)O3)c(F)cc1Cl [F258, Methyl 3-chloro-6-(2,2-difluorobenzo[d][1,3]dioxol-5-yl)-5-fluoropicolinate]",75 to 84
2,"COC(=O)c1nc(-c2ccc(Cl)cc2F)ccc1Cl [F270, Methyl 3-chloro-6-(4-chloro-2-fluorophenyl) picolinate]",85 to 94
3,"COC(=O)c1nc(-c2ccc3c(c2OC)OC(F)(F)O3)ccc1Cl [F369, Methyl 3-chloro-6-(2,2-difluoro-4-methoxybenzo[d][1,3]dioxol-5-yl)picolinate]",85 to 94

# Same assay, conditions: post-emergence, 336 h, STEME: common chickweed (Stellaria media), 140 g ai/ha, 14 days after application, read-out: Visual Growth Reduction (%) 14 Days After Application, STEME
row,Structure (SMILES),pest or weed control at 140 g/ha [%]
1,"COC(=O)c1nc(-c2ccc3c(c2)OC(F)(F)O3)c(F)cc1Cl [F258, Methyl 3-chloro-6-(2,2-difluorobenzo[d][1,3]dioxol-5-yl)-5-fluoropicolinate]",0 to 29
2,"COC(=O)c1nc(-c2ccc(Cl)cc2F)ccc1Cl [F270, Methyl 3-chloro-6-(4-chloro-2-fluorophenyl) picolinate]",30 to 44
3,"COC(=O)c1nc(-c2ccc3c(c2OC)OC(F)(F)O3)ccc1Cl [F369, Methyl 3-chloro-6-(2,2-difluoro-4-methoxybenzo[d][1,3]dioxol-5-yl)picolinate]",0 to 29

# Same assay, conditions: post-emergence, 336 h, TRZAS: wheat, spring (Triticum aestivum), 140 g ai/ha, 14 days after application, read-out: Visual Growth Reduction (%) 14 Days After Application, TRZAS
row,Structure (SMILES),pest or weed control at 140 g/ha [%]
1,"COC(=O)c1nc(-c2ccc3c(c2)OC(F)(F)O3)c(F)cc1Cl [F258, Methyl 3-chloro-6-(2,2-difluorobenzo[d][1,3]dioxol-5-yl)-5-fluoropicolinate]",0 to 29
2,"COC(=O)c1nc(-c2ccc(Cl)cc2F)ccc1Cl [F270, Methyl 3-chloro-6-(4-chloro-2-fluorophenyl) picolinate]",45 to 59
3,"COC(=O)c1nc(-c2ccc3c(c2OC)OC(F)(F)O3)ccc1Cl [F369, Methyl 3-chloro-6-(2,2-difluoro-4-methoxybenzo[d][1,3]dioxol-5-yl)picolinate]",60 to 74

# Same assay, conditions: post-emergence, 336 h, blackgrass (Alopecurus myosuroides), 14 Days After Application, 140 g ai/ha, read-out: Visual Growth Reduction (%) ALOMY
row,Structure (SMILES),pest or weed control at 140 g/ha [%]
1,"COC(=O)c1nc(-c2ccc3c(c2)OC(F)(F)O3)c(F)cc1Cl [F258, Methyl 3-chloro-6-(2,2-difluorobenzo[d][1,3]dioxol-5-yl)-5-fluoropicolinate]",0 to 29
2,"COC(=O)c1nc(-c2ccc(Cl)cc2F)ccc1Cl [F270, Methyl 3-chloro-6-(4-chloro-2-fluorophenyl) picolinate]",0 to 29
3,"COC(=O)c1nc(-c2ccc3c(c2OC)OC(F)(F)O3)ccc1Cl [F369, Methyl 3-chloro-6-(2,2-difluoro-4-methoxybenzo[d][1,3]dioxol-5-yl)picolinate]",30 to 44

# Same assay, conditions: post-emergence, 336 h, canada thistle (Cirsium arvense), 14 Days After Application, 140 g ai/ha, read-out: Visual Growth Reduction (%) CIRAR
row,Structure (SMILES),pest or weed control at 140 g/ha [%]
1,"COC(=O)c1nc(-c2ccc3c(c2)OC(F)(F)O3)c(F)cc1Cl [F258, Methyl 3-chloro-6-(2,2-difluorobenzo[d][1,3]dioxol-5-yl)-5-fluoropicolinate]",0 to 29
2,"COC(=O)c1nc(-c2ccc(Cl)cc2F)ccc1Cl [F270, Methyl 3-chloro-6-(4-chloro-2-fluorophenyl) picolinate]",75 to 84
3,"COC(=O)c1nc(-c2ccc3c(c2OC)OC(F)(F)O3)ccc1Cl [F369, Methyl 3-chloro-6-(2,2-difluoro-4-methoxybenzo[d][1,3]dioxol-5-yl)picolinate]",85 to 94

# Same assay, conditions: post-emergence, 336 h, crabgrass (Digitaria sanguinalis), 14 Days After Application, 140 g ai/ha, read-out: Visual Growth Reduction (%) DIGSA
row,Structure (SMILES),pest or weed control at 140 g/ha [%]
1,"COC(=O)c1nc(-c2ccc3c(c2)OC(F)(F)O3)c(F)cc1Cl [F258, Methyl 3-chloro-6-(2,2-difluorobenzo[d][1,3]dioxol-5-yl)-5-fluoropicolinate]",85 to 94
2,"COC(=O)c1nc(-c2ccc(Cl)cc2F)ccc1Cl [F270, Methyl 3-chloro-6-(4-chloro-2-fluorophenyl) picolinate]",85 to 94
3,"COC(=O)c1nc(-c2ccc3c(c2OC)OC(F)(F)O3)ccc1Cl [F369, Methyl 3-chloro-6-(2,2-difluoro-4-methoxybenzo[d][1,3]dioxol-5-yl)picolinate]",85 to 94

# Same assay, conditions: post-emergence, 336 h, lambsquarters (Chenopodium album), 14 Days After Application, 140 g ai/ha, read-out: Visual Growth Reduction (%) CHEAL
row,Structure (SMILES),pest or weed control at 140 g/ha [%]
1,"COC(=O)c1nc(-c2ccc3c(c2)OC(F)(F)O3)c(F)cc1Cl [F258, Methyl 3-chloro-6-(2,2-difluorobenzo[d][1,3]dioxol-5-yl)-5-fluoropicolinate]",75 to 84
2,"COC(=O)c1nc(-c2ccc(Cl)cc2F)ccc1Cl [F270, Methyl 3-chloro-6-(4-chloro-2-fluorophenyl) picolinate]",85 to 94
3,"COC(=O)c1nc(-c2ccc3c(c2OC)OC(F)(F)O3)ccc1Cl [F369, Methyl 3-chloro-6-(2,2-difluoro-4-methoxybenzo[d][1,3]dioxol-5-yl)picolinate]",30 to 44

# Same assay, conditions: post-emergence, 336 h, redroot pigweed (Amaranthus retroflexus), 14 Days After Application, 140 g ai/ha, read-out: Visual Growth Reduction (%) AMARE
row,Structure (SMILES),pest or weed control at 140 g/ha [%]
1,"COC(=O)c1nc(-c2ccc3c(c2)OC(F)(F)O3)c(F)cc1Cl [F258, Methyl 3-chloro-6-(2,2-difluorobenzo[d][1,3]dioxol-5-yl)-5-fluoropicolinate]",60 to 74
2,"COC(=O)c1nc(-c2ccc(Cl)cc2F)ccc1Cl [F270, Methyl 3-chloro-6-(4-chloro-2-fluorophenyl) picolinate]",45 to 59
3,"COC(=O)c1nc(-c2ccc3c(c2OC)OC(F)(F)O3)ccc1Cl [F369, Methyl 3-chloro-6-(2,2-difluoro-4-methoxybenzo[d][1,3]dioxol-5-yl)picolinate]",60 to 74

# Same assay, conditions: post-emergence, 336 h, wild oat (Avena fatua), 14 Days After Application, 140 g ai/ha, read-out: Visual Growth Reduction (%) AVEFA
row,Structure (SMILES),pest or weed control at 140 g/ha [%]
1,"COC(=O)c1nc(-c2ccc3c(c2)OC(F)(F)O3)c(F)cc1Cl [F258, Methyl 3-chloro-6-(2,2-difluorobenzo[d][1,3]dioxol-5-yl)-5-fluoropicolinate]",0 to 29
2,"COC(=O)c1nc(-c2ccc(Cl)cc2F)ccc1Cl [F270, Methyl 3-chloro-6-(4-chloro-2-fluorophenyl) picolinate]",0 to 29
3,"COC(=O)c1nc(-c2ccc3c(c2OC)OC(F)(F)O3)ccc1Cl [F369, Methyl 3-chloro-6-(2,2-difluoro-4-methoxybenzo[d][1,3]dioxol-5-yl)picolinate]",30 to 44

# Same assay, conditions: post-emergence, 336 h, yellow nutsedge (Cyperus esculentus), 14 Days After Application, 140 g ai/ha, read-out: Visual Growth Reduction (%) CYPES
row,Structure (SMILES),pest or weed control at 140 g/ha [%]
1,"COC(=O)c1nc(-c2ccc3c(c2)OC(F)(F)O3)c(F)cc1Cl [F258, Methyl 3-chloro-6-(2,2-difluorobenzo[d][1,3]dioxol-5-yl)-5-fluoropicolinate]",30 to 44
2,"COC(=O)c1nc(-c2ccc(Cl)cc2F)ccc1Cl [F270, Methyl 3-chloro-6-(4-chloro-2-fluorophenyl) picolinate]",45 to 59
3,"COC(=O)c1nc(-c2ccc3c(c2OC)OC(F)(F)O3)ccc1Cl [F369, Methyl 3-chloro-6-(2,2-difluoro-4-methoxybenzo[d][1,3]dioxol-5-yl)picolinate]",0 to 29

# Reference: patent US20230017045A1, “PYRIDINE AND PYRIMIDINE CARBOXYLATE HERBICIDES AND METHODS OF USE THEREOF” (Dow AgroSciences LLC, priority 2017, published 2023)
